Assay: Test Example 1: impact of tension on hair straightening
Conditions: then shampooed
Experimental: Three samples A-C of frizzy hair (bundles of 2 g Indian frizz hair, untreated, obtained from IHIP, International Hair Importers & Products, NY; see FIG. 1A) were shampooed, rinsed off with water and dried at ambient temperature. Then, an aqueous solution of 10 wt. % glyoxylic acid (pH 1.5, adjusted with NaOH) was applied to the samples A-C at a ratio of hair to solution of 1:1, uniformly distributed with a comb and left on the hair for 15 minutes at 40° C. Then, the samples were dried with a hair drier at a temperature of 90-100° C. for 10 minutes. The temperature was measured by holding an infrared thermometer at a distance of about 20 to 40 cm from the hair and scanning the area where the air stream comes into contact with the hair. The average of at least ten readings is then taken as the temperature. Samples A and B (Reference) were dried in the absence of mechanical tension and serve as reference samples. To sample C, mechanical tension was applied by fixing one end and holding the sample in an elongated state using a round brush. Reference sample B was subsequently treated with a straightening iron at a temperature of 230° C. The samples A-C were rinsed off with water, shampooed, combed and dried at ambient temperature.

With `O=CC(=O)O` [glyoxylic acid] the “straightening of hair after treatment” value (sample A (reference): 10 wt. % aqueous solution pH 1.5, dried with hair drier 90-100° C. in relaxed state, no mechanical tension) was “does not lead to a substantial straightening”, the “straightening of hair after treatment” value (sample B (reference): 10 wt. % aqueous solution pH 1.5, dried without tension, then straightening iron at 230° C.) was “straightening of the hair” and the “appearance of hair after treatment (straightening, frizz)” value (sample C: 10 wt. % aqueous solution pH 1.5, 15 min at 40° C., dried with hair drier 90-100° C. for 10 min under mechanical tension (round brush), no iron, versus sample A) was “remarkable straightened appearance and reduced frizz”.

— patent US10864150B2, “Hair treatment process” (KAO CORPORATION, priority 2013, dated 2020)
